Source: patent US20060134119A1, “Drugs containing galectin 9” (priority 2003, published 2006)

Assays:
[1] = system: MOLT-4 cells; test: Ca2+ influx, Fluo-3 assay by flow cytometry; assay type: cell-based, human; conditions: Fluo-3 assay, FIG. 8
Description: Cells (approx. 10^6 to 10^7 cells/mL) in the culture medium (10% FCS, RPMI-1640 containing 10 mM HEPES, pH 7.2) were incubated with fluo-3 AM (final concentration 10 μM, Dojindo, Kumamoto, Japan), an intracellular calcium indicator, at 37° C. for 30 min (Sharp, B. M. et al., Proc. Natl. Acad. Sci. USA, 93: 8294 (1996)). Then the cells were washed and resuspended in the culture medium (final concentration, approx. 2×10^5 cells/mL per sample). Intracellular calcium level was measured by flow cytometry. The resting cells were stimulated at 1 min after their fluorescence intensities were measured.
Next, sequential measurement was restarted until different stimuli were applied. In lactose inhibition assay, cells were stimulated in the presence of 30 mM lactose. Sucrose (30 mM) was used as a control (Sano, H. et al., J. Imnunol., 165: 2156 (2000)). A23187 (calcium ionophore, final concentration 5 ng/mL, Wako, Osaka, Japan) was used as a positive control.

[2] = system: MOLT-4 cells; test: Effects of Gal-9 on DEX-, anti-Fas Ab- or etoposide-induced apoptosis; assay type: cell-based, human; conditions: FIG. 9
Excerpt: The following agents were purchased from suppliers below: DEX (BioVision, CA, US), anti-Fas Ab (clone CH-11, MBL), TNFα (Genzyme, Cambridge, Mass., US), C2 ceramide (SIGMA), and etoposide (Biovision).
Effects of Gal-9 on the apoptosis induced by other stimuli (e.g. DEX, anti-Fas Ab, and etoposide) were examined.

[3] = system: MCF-7; test: Apoptosis analysis by PI method in MCF-7 cells; assay type: cell-based; conditions: incubation with galectin-9 at least 48 hr or more
Description: (§1) Apoptotic activity was measured by the PI method. When cells are incubated with galectin-9, washed, then subjected to alcohol-fixation, and fragmented DNAs flow out of the cell. Subsequently, incubation with PI leads to a reduction in the fluorescence intensity of apoptotic cells. Apoptosis was examined by the percentage of the cells wherein their fluorescence intensity was reduced. […] This induction was at the same level as H2O2 (hydrogen peroxide solution) that was used as a positive control. In addition, the same results were obtained by another method for examining apoptosis, TUNEL assay.

[4] = system: eosinophils; test: Effect of Gal-9 on induced apoptosis of eosinophils; assay type: cell-based
[5] = system: KATO-III; test: Apoptosis analysis by PI method in KATO-III cells; assay type: cell-based; conditions: incubation with galectin-9 at least 48 hr or more
Description: as §1

[6] = system: CD4 T Cell; test: Apoptosis induction in non-activated normal CD4 T cells (Table 4); assay type: cell-based; conditions: 1 μM galectin-9, 1 μM galectin-3
Description: (§2) For example, measurements of apoptosis induction in the presence of 1 μM galectin-9 are as shown in Table 4 below (also 1 μM for galectin-3 in Table 4).

[7] = system: THP-1; test: Apoptosis analysis by PI method in THP-1 cells; assay type: cell-based
Description: MOLT-4 (T cell), Jurkat (T cell), BALL-1 (B cell), THP-1 (acute monocytic leukemia derived cell), and HL60 (acute promyelotic leukemia derived cell) cells were obtained from American Type Culture Collection (ATCC). All the cell lines were maintained in an RPMI-1640 medium (Sigma, St. Louis, US) supplemented with 10% FCS in 5% Co2 at 37° C. Lactose (30 mM) was added to the culture medium to inhibit Gal-9 activity. The same concentration of sucrose was used as a control.
Cells that underwent apoptosis induction were centrifuged at 4° C. for 5 min at 1,000 rpm, and the cell pellet was resuspended in PBS (300 μL), and adjusted to a final concentration of 70% by gradually adding 100% cold ethanol (700 μL) to the suspended cells with vortexing. […] Stained cells were analyzed by flow cytometry (Sandstrom, K. et al., J Immunol Methods, 240: 55 (2000) and Zhang L. et al., Cancer Lett, 142: 129 (1999)) after removing aggregated cells through a nylon mesh and increasing the cell volume with PBS. […]
Apoptotic activity was measured by the PI method. […] Subsequently, incubation with PI leads to a reduction in the fluorescence intensity of apoptotic cells. Apoptosis was examined by the percentage of the cells wherein their fluorescence intensity was reduced. […]

[8] = system: malignant melanoma cell line MM-RU; test: Apoptosis analysis by PI method in malignant melanoma cell line MM-RU; assay type: cell-based, human; conditions: incubated with galectin-9 for 72 hr, FIG. 10
Description: as §1

[9] = system: K-562 leukemic cells; conditions: 16 hr incubation with 1 mM galectin-9, PI, FACS
Description: (§3) Cytotoxicities in Jurkat T cells, K-562 leukemic cells, and normal lymphocytes were measured by flow cytometry analysis using PI. That is, PI invades into the damaged target cells when PI is added for the last 15 min of 16 hr incubation with 1 mM galectin-9. Fluorescence generated by PI is measured by FACS. Untreated cells were used as a negative control group, formalin-fixed cells as a 100% dead cell group, and H2O2 (hydrogen peroxide solution)-treated cells as a positive control group, respectively.

[10] = system: normal lymphocytes; conditions: Normal Lymphocyte; 16 hr incubation with 1 mM galectin-9; PI, FACS
Description: as §3

[11] = system: Jurkat T cells; conditions: 16 hr incubation with 1 mM galectin-9, PI, FACS
Description: as §3

[12] = system: CD8 T Cell; test: Apoptosis induction in non-activated normal CD8 T cells (Table 4); assay type: cell-based; conditions: 1 μM galectin-9, 1 μM galectin-3
Description: as §2

[13] = system: Daudi; test: Apoptosis analysis by PI method in Daudi cells; assay type: cell-based; conditions: incubation with galectin-9 at least 48 hr or more
Description: as §1

“Galectin-9: Recombinant human galectin-9 expressed in E. coli and purified on lactose-agarose” was tested, and the calcium influx ([1]; A23187 final concentration 5 ng/mL) was “increased calcium influx”, the “time within which calcium influx increased after addition” value [1] was 10 to 20 s and the “effect of rGal-9 on anti-Fas Ab-induced apoptosis” value [2] was “additional effects”. For the same substance, the “effect of rGal-9 on etoposide-induced apoptosis” value [2] was “additional effects”, the “percentage (%) of apoptotic cells, rGal-9 with DEX” value [2] was “scarcely little or no difference” and the “apoptosis induction, Gal9 (+)” value [3] was 14.1. The “effect on DEX-induced apoptosis” value [4] was “inhibits”, the “effect on anti-Fas Ab-induced apoptosis” value [4] was “stimulates” and the “apoptosis induction, Gal9 (+)” value [5] was 30.5. The “apoptosis induction, CD4 T Cell Resting” value [6] was 1.8, the “apoptosis induction, Gal9 (+)” value ([7]; THP-1, incubation with galectin-9 at least 48 hr or more) was 61.2 and the apoptosis induction ([7]; rGal-9 1 μM, 24 hr, FIG. 3) was “induced”. The apoptosis induction [8] was “strongly induced”, the “cytotoxicity, 16 hours” value [9] was 23.4 and the “cytotoxicity, 16 hours” value [10] was 2.47. For the same substance, the “cytotoxicity, 16 hours” value [11] was 46.2, the “apoptosis induction, CD8 T Cell Resting” value [12] was 1.4 and the “apoptosis induction, Gal9 (+)” value [13] was 58.5.
